Test results published in US11524941B2, “Pyrazole compounds as LSD1 inhibitors and applications thereof” (MEDSHINE DISCOVERY INC., priority 2020, dated 2022).
Counter-ions that a name gives are not always drawn.

Test system: NCI-H1417 cells
Assay: Proliferation inhibitory activity against NCI-H1417 cells (CellTiter-Glo)
Assay type: cell-based
Conditions: Homo sapiens, 240 h, 10 days incubation, starting concentration 10 μM, read-out: IC50 (nM), NCI-H1417 cell proliferation inhibition
Procedure: Experimental purpose: To detect the inhibitory activity of the compounds against NCI-H1417 cells.
Experimental materials: RPMI 1640 medium, fetal bovine serum, Promega CellTiter-Glo reagent. The NCI-H1417 cell line was purchased from ATCC. Envision multilabel analyzer (PerkinElmer).
Experimental method: The compounds were dissolved to 10 mM, and the compounds were diluted 5 times with DMSO in the compound plate. The starting concentration of the compound was 2 mM, diluted 3 times with Bravo to 10 concentrations. Echo was used to transfer 250 nL to the top and bottom double wells of a blank 384 cell plate, and 250 nL of DMSO/compound was added to a cell suspension of 1000 cells/50 μL per well, and the compounds were diluted 200 times, i.e. the starting concentration was 10 μM. Cell plates were incubated in a carbon dioxide incubator for 10 days. 25 μL of Promega CellTiter-Glo reagent per well was added to the cell plate, and the mixture was shaken for 10 minutes at room temperature to stabilize the luminescence signal. Readings were taken using a PerkinElmer Envision multilabel analyzer.
Data analysis: The equation (Max-Ratio)/(Max-Min)*100% was used to convert the original data into inhibition rate, the IC50 value can be obtained by curve fitting with four parameters. (derived from 205 mode in XLFIT5, iDBS)

- IC50: 107 nM
SMILES: CC(C)(O)Cn1nnc2cc(-c3cn(CC(=O)N4CCC[C@@H](N)C4)nc3-c3ccc(C#N)c(F)c3)ccc21 [Hydrochloride of compound 22]
